These results are taken from patent US6569849B1, “N-Substituted azaheterocyclic compounds” (Novo Nordisk A/S, priority 1996, dated 2003).

What is called melting point is the temperature, or range, at which the solid turns liquid.

Molecules are shown by their SMILES. Where a name gives a salt, the structure may show the parent alone.

System in the first data set: not given
Test: not given
Details: not given
`CN(CCN1CCC[C@@H](C(=O)O)C1)C1c2ccccc2CCc2ccccc21` (hydrate or solvate) [Example 30, (R)-1-(2-(N-(10,11-dihydro-5H-dibenzo[a,d]cyclohepten-5-yl)-N-methylamino)ethyl)-3-piperidinecarboxylic Acid] had a melting point of 187 to 190 °C. On the same count and under the same terms, for `O=C(O)[C@@H]1CCCN(C(=O)CC=C2c3ccccc3CCc3ccccc32)C1` [Example 5, 1-(3-(10,11-Dihydro-5H-dibenzo[a,d]cyclohepten-5-ylidene)-1-propionyl)-(3R)-piperidinecarboxylic Acid] the value was 71 to 76 °C; for `Cl.O=C(O)[C@@H]1CCCN(CCC(=O)N2c3ccccc3CCc3ccccc32)C1` (hydrate or solvate), 180 to 183 °C; for `CC(CN1c2ccccc2CCc2ccccc21)CN1CCCCC1C(=O)O` (as salt: hydrochloride) (hydrate or solvate) [Example 3, 1-(3-(10,11-Dihydro-5H-dibenzo[b,f]azepin-5-yl)-(2R)-methyl-1-propyl)-(2R)-piperidinecarboxylic Acid Hydrochloride], 201 to 216 °C. Turning to `CC(CN1CCC[C@@H](C(=O)O)C1)=C1c2ccccc2CCc2ccccc21.Cl` (hydrate or solvate), the melting point is 151 to 155 °C. `CC(CN1c2ccccc2CCc2ccccc21)N1CCC[C@@H](C(=O)O)C1.Cl` (stereo partly drawn) (hydrate or solvate): the melting point was 213 to 223 °C.

Compound `O=C(O)[C@@H]1CCCN(CC#CCN2c3ccccc3CCc3ccccc32)C1` (hydrate or solvate) [Example 10, (R)-1-(4-(10,11-Dihydro-5H-dibenzo[b,f]azepin-5-yl)-2-butyn-1-yl)-3-piperidinecarboxylic Acid] registered a melting point of 153 to 154 °C. `CC(CCN1c2ccccc2CCc2ccccc21)N1CCC[C@@H](C(=O)O)C1.Cl` (stereo partly drawn) (hydrate or solvate) yielded a melting point of 214 to 218 °C. As to `Cl.O=C(O)[C@@H]1CCCN(Cc2ccc(C3c4ccccc4CCc4ccccc43)cc2)C1`, the melting point is 167 to 175 °C.

For the compound `CCCC(CN1CCC[C@@H](C(=O)O)C1)CN1c2ccccc2CCc2ccccc21.Cl` (stereo partly drawn) (hydrate or solvate), the melting point lay within 116 to 120 °C.

Another data set relates to histamine induced paw oedema. The experiment in a line: Histamine induced paw oedema (rat histamine paw oedema test). Format: in vivo, male Sprague-Dawley rats. To be noted: 1.0 mg/kg, intraperitoneally 15 minutes before anaesthetics; paw swelling 20 minutes after histamine, water plethysmography. On the procedure:
Compounds of formula I may be used to treat all painful, hyperalgesic and/or inflammatory conditions in which C-fibres play a pathophysiological role by eliciting neurogenic pain or inflammation, i.e.: The rat histamine paw oedema test was performed essentially as described by Amann et al. (Europ. J. Pharmacol. 279, 227-231, 1995). In brief 250-300 g male Sprague-Dawley rats were anaesthetized with pentobarbital sodium, and placed on a 32 degree (Celsius) heated table. Ten minutes later histamine (50 micoliter, 3 mg/ml) was injected in the right hind paw and 20 minutes hereafter the paw swelling was determined by water plethysmography (Ugo Basile). Test compounds were administered intraperitoneally at 15 minutes before the anaesthetics. Values for inhibition of histamine induced oedema response for some representative compounds are recorded in table 1.
Turning to `CC(CN1c2ccccc2CCc2ccccc21)CN1CCCCC1C(=O)O` [Example 3, 1-(3-(10,11-Dihydro-5H-dibenzo[b,f]azepin-5-yl)-(2R)-methyl-1-propyl)-(2R)-piperidinecarboxylic Acid Hydrochloride], the “% Oedema inhibition” value was 47%. As for `Cl.O=C(O)[C@@H]1CCCN(C/C=C\CN2c3ccccc3CCc3ccccc32)C1` [Example 4, 1-(4-(10,11-Dihydro-5H-dibenzo[b,f]azepin-5-yl)-(2Z)-butenyl)-(3R)-piperidinecarboxylic Acid Hydrochloride], the “% Oedema inhibition” value was determined as 26%.
